Laboratory results from ChEMBL document CHEMBL3758098, “3-(Dipropylamino)-5-hydroxybenzofuro[2,3-f]quinazolin-1(2H)-one (DPA-HBFQ-1) plays an inhibitory role on breast cancer cell growth and progression” (Eur J Med Chem, 2016).
Calls of active or inactive are those of the source. The calls are words filed in the database; no cut-off is given here.

Key:
MDA-MB-231 [1] = assay: Cytotoxicity against human MDA-MB-231 cells assessed as cell viability after 5 days by MTT assay; assay type: functional, cell-based; conditions: MDA-MB-231, 120 h
HepG2 = assay: Cytotoxicity against human HepG2 cells assessed as growth inhibition by MTT assay; assay type: functional, cell-based
[2] = molecular target: DNA topoisomerase 2-alpha (Homo sapiens) (UniProt P11388); conditions: 50 uM
DNA topoisomerase 2-alpha (Homo sapiens), sequence (P11388 whole entry): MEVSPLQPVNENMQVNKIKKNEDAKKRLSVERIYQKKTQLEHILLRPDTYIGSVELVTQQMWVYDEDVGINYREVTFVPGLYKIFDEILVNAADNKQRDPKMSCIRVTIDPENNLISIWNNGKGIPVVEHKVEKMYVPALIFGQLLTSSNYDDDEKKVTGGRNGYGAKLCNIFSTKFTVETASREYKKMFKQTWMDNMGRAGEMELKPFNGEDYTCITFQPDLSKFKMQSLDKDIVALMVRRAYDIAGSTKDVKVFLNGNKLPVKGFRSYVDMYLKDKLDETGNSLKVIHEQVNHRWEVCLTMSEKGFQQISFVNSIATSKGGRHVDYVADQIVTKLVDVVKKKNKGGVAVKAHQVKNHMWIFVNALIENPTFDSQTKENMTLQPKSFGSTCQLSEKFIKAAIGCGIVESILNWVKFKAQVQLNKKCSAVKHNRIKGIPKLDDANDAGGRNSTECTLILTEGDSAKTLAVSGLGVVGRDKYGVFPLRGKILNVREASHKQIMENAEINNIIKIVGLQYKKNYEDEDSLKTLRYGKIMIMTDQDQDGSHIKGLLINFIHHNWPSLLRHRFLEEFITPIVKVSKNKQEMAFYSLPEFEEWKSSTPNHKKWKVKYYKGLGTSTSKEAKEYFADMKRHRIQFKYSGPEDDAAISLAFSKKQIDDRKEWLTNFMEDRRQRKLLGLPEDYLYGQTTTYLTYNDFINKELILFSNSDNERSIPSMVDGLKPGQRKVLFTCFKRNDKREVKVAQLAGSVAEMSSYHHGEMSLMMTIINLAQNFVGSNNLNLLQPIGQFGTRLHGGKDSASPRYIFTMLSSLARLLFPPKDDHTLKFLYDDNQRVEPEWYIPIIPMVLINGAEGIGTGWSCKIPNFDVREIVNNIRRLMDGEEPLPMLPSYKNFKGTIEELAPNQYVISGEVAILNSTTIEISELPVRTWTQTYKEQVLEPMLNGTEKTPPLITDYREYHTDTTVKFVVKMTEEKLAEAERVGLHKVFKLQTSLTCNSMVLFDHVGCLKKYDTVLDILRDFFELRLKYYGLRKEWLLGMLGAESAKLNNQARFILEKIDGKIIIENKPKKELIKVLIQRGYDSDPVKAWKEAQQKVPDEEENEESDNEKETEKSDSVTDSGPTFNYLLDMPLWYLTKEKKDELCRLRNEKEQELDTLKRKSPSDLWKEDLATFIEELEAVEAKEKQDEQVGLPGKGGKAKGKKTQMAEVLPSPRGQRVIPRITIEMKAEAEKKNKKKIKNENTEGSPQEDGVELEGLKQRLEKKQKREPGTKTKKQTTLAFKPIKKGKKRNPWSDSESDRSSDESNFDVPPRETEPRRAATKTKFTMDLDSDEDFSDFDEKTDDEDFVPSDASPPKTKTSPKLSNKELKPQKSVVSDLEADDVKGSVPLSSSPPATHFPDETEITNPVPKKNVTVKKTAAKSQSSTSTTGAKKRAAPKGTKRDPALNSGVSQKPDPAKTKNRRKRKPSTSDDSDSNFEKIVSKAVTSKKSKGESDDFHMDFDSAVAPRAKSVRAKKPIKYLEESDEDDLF
Description: Inhibition of human topoisomerase 2 assessed as decatenation of kDNA at 50 uM after 30 mins by agarose gel electrophoresis

HeLa = assay: Cytotoxicity against human HeLa cells assessed as growth inhibition by MTT assay; assay type: functional, cell-based
[3] = molecular target: T1, DNA topoisomerase 1 (Homo sapiens) (UniProt P11387); assay: Inhibition of recombinant human topoisomerase 1 assessed as relaxation of supercoiled pHOT1 at 50 uM after 30 mins by agarose gel electrophoresis
T1 sequence (whole entry): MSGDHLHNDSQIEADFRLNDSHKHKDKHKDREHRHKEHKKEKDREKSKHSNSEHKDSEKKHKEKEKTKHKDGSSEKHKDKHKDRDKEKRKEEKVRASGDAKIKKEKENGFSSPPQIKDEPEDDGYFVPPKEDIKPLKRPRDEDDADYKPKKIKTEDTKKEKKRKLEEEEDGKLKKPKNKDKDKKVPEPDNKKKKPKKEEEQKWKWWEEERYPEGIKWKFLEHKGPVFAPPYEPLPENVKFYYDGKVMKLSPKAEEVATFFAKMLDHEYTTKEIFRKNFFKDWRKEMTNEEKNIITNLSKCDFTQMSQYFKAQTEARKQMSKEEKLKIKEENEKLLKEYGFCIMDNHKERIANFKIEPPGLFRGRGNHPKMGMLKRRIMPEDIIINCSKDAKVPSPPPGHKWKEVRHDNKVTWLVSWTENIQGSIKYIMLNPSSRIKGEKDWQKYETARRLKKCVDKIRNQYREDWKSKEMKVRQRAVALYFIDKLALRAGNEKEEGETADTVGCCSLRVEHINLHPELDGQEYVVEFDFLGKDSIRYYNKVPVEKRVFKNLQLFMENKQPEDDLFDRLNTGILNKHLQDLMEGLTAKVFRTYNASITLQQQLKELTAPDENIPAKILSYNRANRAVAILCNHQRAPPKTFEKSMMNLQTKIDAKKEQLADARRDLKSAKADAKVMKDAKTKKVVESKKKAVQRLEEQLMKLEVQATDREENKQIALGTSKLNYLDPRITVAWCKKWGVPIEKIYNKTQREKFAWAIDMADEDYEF

[4] = Cytotoxicity against human MCF-7 TR1 cells assessed as cell colony formation after 14 days by crystal violet staining-based assay; assay type: functional; conditions: MCF-7 TR1, 336 h
[5] = molecular target: T1, DNA topoisomerase 1 (Homo sapiens); assay: Inhibition of recombinant human topoisomerase 1 assessed as relaxation of supercoiled pHOT1 at 10 uM after 30 mins by agarose gel electrophoresis
Ishikawa = assay: Cytotoxicity against human Ishikawa cells assessed as growth inhibition by MTT assay; assay type: functional, cell-based
[6] = Cytotoxicity against human MCF10A cells assessed as cell viability after 5 days by MTT assay; assay type: cell-based; conditions: MCF-10A, 120 h
[7] = Cytotoxicity against rat R2C cells assessed as growth inhibition by MTT assay; assay type: functional, cell-based
MCF7 [8] = assay: Cytotoxicity against human MCF7 cells assessed as cell viability after 5 days by MTT assay; assay type: functional, cell-based; conditions: MCF7, 120 h
[9] = molecular target: DNA topoisomerase 2-alpha (Homo sapiens) (UniProt P11388); conditions: 10 uM
Description: Inhibition of human topoisomerase 2 assessed as decatenation of kDNA at 10 uM after 30 mins by agarose gel electrophoresis

MCF7 [10] = assay: Cytotoxicity against human MCF7 cells assessed as growth inhibition at 1 uM after 5 days by MTT assay relative to vehicle-treated control; assay type: functional; conditions: MCF7, 120 h, read-out: GI
MDA-MB-231 [11] = assay: Cytotoxicity against human MDA-MB-231 cells assessed as growth inhibition at 1 uM after 5 days by MTT assay relative to vehicle-treated control; assay type: functional
[12] = Cytotoxicity against human MCF10A cells assessed as growth inhibition at 1 uM after 5 days by MTT assay relative to vehicle-treated control; assay type: cell-based; conditions: mcf-10a, 120 h

Row | SMILES | IC50 (MDA-MB-231 [1]) [nM] | IC50 (HepG2) [nM] | inhibition [2] | IC50 (HeLa) [nM] | inhibition [3] | IC50 [4] [nM] | inhibition [5] | IC50 (Ishikawa) [nM] | IC50 [6] [nM] | IC50 [7] [nM] | IC50 (MCF7 [8]) [nM] | inhibition [9] | inhibition of growth at 1 µM (MCF7 [10]) [%] | growth inhibition (GI) (MDA-MB-231 [11]) | Activity [12]
1 | Cc1c2ccncc2c(C)c2c1[nH]c1ccccc12 [ELLIPTECINE] | 1820 | 2900 | Active | 1000 | Active | 1750 | Active | 1500 | 1200 | 2000 | 1250 | Active |  |  | 
2 | CCN(CC)c1nc2c(OC)cc3c4ccccc4oc3c2c(=O)[nH]1 |  |  |  |  |  |  |  |  |  |  |  |  | 15 | Active | Non-toxic
